In US12435069B2, “Cocrystals of posaconazole, methods of making and using same” (REGENTS OF THE UNIVERSITY OF MICHIGAN, priority 2019, dated 2025):
≈ marks a conversion by molar mass, not a printed value. Where “and” joins values, the source holds several entries; their conditions need not be identical. Equal values may be shown once. Read-outs that look alike come from different tables or passages of the source.

Columns and labels:
[1] = cited from earlier work
[2] = Dissolution of drug or cocrystal in biorelevant media (FaSSIF, FeSSIF); format: physicochemical; conditions: for Cmax / AUC (area under the dissolution curve): 25 °C; for Cmax: 150 rpm, 3 h, 300 mg dose in 250 mL equivalent; for AUC (area under the dissolution curve): up to 180 min; for Final pH: after dissolution
Description: (§1) Blank FaSSIF (pH 6.50 phosphate buffer) was prepared at room temperature by dissolving 0.683 g of NaOH (pellets), 7.902 g of NaH2PO4·H2O, and 12.372 g NaCl in 2 L of purified deionized (DI) water. The pH was adjusted to 6.50 (±0.04) with 1 M NaOH and 1 M HCl solutions. Blank FeSSIF (pH 5.00 acetate buffer) was prepared at room temperature by dissolving 8.089 g NaOH (pellets), 16.4 mL acetic acid, and 23.748 g NaCl in 2 L of purified DI water. The pH was adjusted to 5.00 (±0.03) with 1 M NaOH and 1 M HCl solutions. FaSSIF and FeSSIF media were prepared by dissolving appropriate amounts of FaSSIF/FeSSIF powder in the blank media according to the manufacturer, then stored at room temperature and used within 48 hours. Blank FaSSGF (pH 1.60 buffer) was prepared at room temperature by dissolving 1.999 g of sodium chloride in 1 L of DI water. The pH was adjusted to 1.60 (±0.05) with 2 M HCl solution.
Dissolution studies of drug or cocrystal were conducted using an overhead stirrer with a glass propeller at 150 rpm over three hours. Based on a 300 mg dose in 250 mL, 36 mg of PSZ drug or 46.6 mg PSZ-4ABA cocrystal (molar equivalent PSZ amount) were added to 30 mL of dissolution media. Dissolution studies were done in FaSSIF and FeSSIF with sieved fractions of drug and cocrystals in a particle size range of 106 to 125 μm. The dissolution experiments were conducted in a water bath at 25.0 (±0.5) ° C. Initial and final solution pH was measured. Aliquots of 0.5 mL were taken with a syringe at time points up to 180 minutes. The solution samples were filtered through syringe filter with PvDF membrane of a pore size of 0.45 μm. The solution concentrations of drug and coformer were analyzed with a Waters HPLC equipped with a photodiode array UV detector. A Waters Atlantis C18 column with the dimension of 5 μm, 250×4.6 mm was used for separation. A gradient method using methanol and water with 0.1% trifluoroacetic acid was run with the flow rate set at 1 mL/min. […] The wavelengths used for the analytes were […] for PSZ, and 287 nm for 4ABA.

[3] = Cocrystal eutectic constant (Keu): coformer and drug concentrations at the eutectic point in buffers and biorelevant media; format: physicochemical; conditions: for solubility: thermodynamic from solid, read-out: [PSZ]eu (also solubility of drug at equilibrium); for solubility / Keu ([coformer]eu/[drug]eu) / [4ABA]eu (coformer concentration at the eutectic point): 25 °C
Description: as §1
Cocrystal eutectic constant (Keu), which is well recognized as a key stability and solubility indicator, was determined from measurement of coformer and drug concentrations at the eutectic point, where drug and cocrystal solid phases are in equilibrium with solution according to Keu=[coformer]eu/[drug]eu. An excess amount of PSZ (approximately 200 mg) and 150 mg of PSZ-4ABA were suspended in 3 mL of blank FaSSGF, blank FaSSIF, blank FeSSIF, FaSSIF, or FeSSIF media. Biorelevant media included FaSSIF and FeSSIF. Blank media was the buffer solution in the biorelevant media without the lecithin and bile salt. The suspensions were kept in a water bath at 25.0±0.1° C. and magnetically stirred for up to 72-96 hours. Sample solutions were filtered through 0.45 μm cellulose acetate filters and analyzed by HPLC. The pH was measured and the equilibrium solids were characterized by DSC and PXRD.
Keu is proportional to the cocrystal solubility advantage over drug (SA=Scc/Sdrug), and for a 2:3 cocrystal is given by
[formula] […] Scc is lower than Sdrug when Keu is lower than 1.5. See is equal to Sdrug when Keu is equal to 1.5. The higher the Keu value, the higher is the cocrystal solubility advantage over drug (SA) and Scc.

[4] = in vivo; cited from earlier work

## CC[C@@H]([C@H](C)O)n1ncn(-c2ccc(N3CCN(c4ccc(OC[C@@H]5CO[C@@](Cn6cncn6)(c6ccc(F)cc6F)C5)cc4)CC3)cc2)c1=O [PSZ, Posaconazole]
[1]
  Log P: 4.6
  aqueous solubility: < 1 µg/mL
[2]; FaSSIF
  Cmax: 4.5 ± 0.2 µM
  AUC (area under the dissolution curve): 745 ± 18 µM·min
  Final pH: 6.58 ± 0.01
[2]; FeSSIF
  Cmax: 7 ± 3 µM
  AUC (area under the dissolution curve): 1190 ± 104 µM·min
  Final pH: 4.95 ± 0.01
[3]; aqueous buffer, Blank FaSSIF, final pH 5.12
  solubility: 0.1 ± 0.04 µM (≈ 0.0701 µg/mL)
[3]; aqueous buffer, Blank FeSSIF, final pH 5.11
  solubility: 0.12 ± 0.02 µM (≈ 0.0841 µg/mL)
[3]; simulated gastric fluid, Blank FaSSGF, final pH 1.94
  solubility: 83 ± 4 µM (≈ 58.2 µg/mL)
[3]; FaSSIF, final pH 5.07
  solubility: 3.6 ± 0.8 µM (≈ 2.52 µg/mL)
[3]; FeSSIF, final pH 5.03
  solubility: 18 ± 5 µM (≈ 12.6 µg/mL)
[4]
  fraction absorbed: < 30%

## CCC(C(C)O)n1ncn(-c2ccc(N3CCN(c4ccc(OCC5COC(Cn6cncn6)(c6ccc(F)cc6F)C5)cc4)CC3)cc2)c1=O.CCC(C(C)O)n1ncn(-c2ccc(N3CCN(c4ccc(OCC5COC(Cn6cncn6)(c6ccc(F)cc6F)C5)cc4)CC3)cc2)c1=O.Nc1ccc(C(=O)O)cc1.Nc1ccc(C(=O)O)cc1.Nc1ccc(C(=O)O)cc1 (centres unmarked) [PSZ-4ABA, posaconazole-4-aminobenzoic acid (PSZ-4ABA) cocrystal]
[2]; FaSSIF
  RAUC (AUCPSZ-4ABA/AUCPSZ): 4.1 and 4.1 ± 0.3
  Cmax: 48 ± 4 µM
  AUC (area under the dissolution curve): 3052 ± 209 µM·min
  Final pH: 6.37 ± 0.01
[2]; FeSSIF
  RAUC (AUCPSZ-4ABA/AUCPSZ): 13 and 13 ± 4
  Cmax: 148 ± 3 µM
  AUC (area under the dissolution curve): 15,670 ± 4612 μM × min
  Final pH: 5.01 ± 0.01
[3]; Blank FaSSGF, final pH 1.94
  Keu ([coformer]eu/[drug]eu): 0.0028 ± 0.0002 ×10^5
  [4ABA]eu (coformer concentration at the eutectic point): 27.3 ± 0.4 mM
[3]; Blank FaSSGF, initial pH 1.60
  Final pH (pH at equilibrium): 1.94 ± 0.01
[3]; Blank FaSSIF, final pH 5.12
  Keu ([coformer]eu/[drug]eu): 1.7 ± 0.6 ×10^5
  [4ABA]eu (coformer concentration at the eutectic point): 17.4 ± 0.1 mM
[3]; Blank FaSSIF, initial pH 6.55
  Final pH (pH at equilibrium): 5.12 ± 0.03
[3]; Blank FeSSIF, final pH 5.11
  Keu ([coformer]eu/[drug]eu): 1.2 ± 0.3 ×10^5
  [4ABA]eu (coformer concentration at the eutectic point): 14.5 ± 0.2 mM
[3]; Blank FeSSIF, initial pH 5.03
  Final pH (pH at equilibrium): 5.11 ± 0.01
[3]; FaSSIF, final pH 5.07
  Keu ([coformer]eu/[drug]eu): 0.06 ± 0.01 ×10^5
  [4ABA]eu (coformer concentration at the eutectic point): 20.2 ± 0.4 mM
[3]; FaSSIF, initial pH 6.50
  Final pH (pH at equilibrium): 5.07 ± 0.04
[3]; FeSSIF, final pH 5.03
  Keu ([coformer]eu/[drug]eu): 0.010 ± 0.003 ×10^5
  [4ABA]eu (coformer concentration at the eutectic point): 17.3 ± 0.5 mM
[3]; FeSSIF, initial pH 5.03
  Final pH (pH at equilibrium): 5.03 ± 0.14
[3]; pH increases from 1.9 to 5.1
  decrease of Sco (cocrystal solubility) with pH: 20 times
